Measurements as given in US20060234909A1, “Compositions and methods for increasing drug efficiency” (priority 2003, published 2006).
Primed or numbered codes have the meaning given here. * marks the point of attachment. 10Ca = carbamate linkage conjugating the peptide-PEG to paclitaxel at C10; 10Ca‑PXL = paclitaxel conjugated at C10 via a carbamate; 3Am‑VBL = vinblastine (VBL) conjugate; PEG(13)″ = PEG(13) linker; PEG(11) = PEG(11) linker; Cbz = O=C(OCc1ccccc1)*; PEG(13) = PEG13 linker; Piv = CC(C)(C)C(=O)*; OBn = c1ccc(CO*)cc1; PXL = paclitaxel

Key:
[1] = Serum stability in RPMI1640 medium containing 10% fetal bovine serum; assay type: in vitro ADME
Protocol: The stability of conjugates was measured in RPMI1640 cell culture medium containing 10% fetal bovine serum. The serum-containing medium was pre-warmed at 37° C. for 3 min prior to addition of test articles. Test articles, prepared in DMSO as 5 mM stocks, were added to the cell culture media to a final concentration of 10 μM. Aliquots ([…]) were withdrawn in triplicate at 0, 4, 8, 24 and 72 hours and combined with the same volume of ice-cold acetonitrile to terminate the reaction. The mixture was centrifuged at 2,000×g for 10 minutes. One part of the supernatant was mixed with four parts of deionized water to bring down the percentage of organic solvent. The diluted samples were then assayed by LC/MS for the test article. The natural log of the percent remaining was plotted versus time. A linear fit was used to determine the rate constant. The fit was truncated after the percent of remaining test article was less than 10%. The elimination half-lives associated with the disappearance of test articles were determined to compare their relative stability. The assays were carried out by Absorption Systems (Exton, Pa.).

HUVEC = assay: Cytotoxicity assay (monolayer), HUVEC; assay type: cell-based; details: ML (monolayer), read-out: HUVEC (EC50 Ave) ML
Akt = Akt (Homo sapiens, UniProt P31749); assay: Akt kinase assay (PKLight ATP utilization, substrate phosphorylation as % of parent peptide); assay type: biochemical; set-up: purchased Upstate (Charlottesville, Va.) 14-276
Chain of Akt (P31749 whole entry): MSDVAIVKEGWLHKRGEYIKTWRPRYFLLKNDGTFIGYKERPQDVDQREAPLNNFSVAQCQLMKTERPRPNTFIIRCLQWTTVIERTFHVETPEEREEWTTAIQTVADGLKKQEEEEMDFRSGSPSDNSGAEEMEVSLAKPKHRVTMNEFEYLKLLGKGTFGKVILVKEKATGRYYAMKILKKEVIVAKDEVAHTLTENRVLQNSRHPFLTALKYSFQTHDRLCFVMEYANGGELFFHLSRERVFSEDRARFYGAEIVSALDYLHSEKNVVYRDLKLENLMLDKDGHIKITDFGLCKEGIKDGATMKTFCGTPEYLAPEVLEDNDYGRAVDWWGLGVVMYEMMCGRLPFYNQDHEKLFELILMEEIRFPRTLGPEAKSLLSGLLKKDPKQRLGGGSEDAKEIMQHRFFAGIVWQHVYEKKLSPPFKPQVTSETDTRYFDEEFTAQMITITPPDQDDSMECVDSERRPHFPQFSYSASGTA
Protocol: Another test may involve monitoring the consumption of ATP. For example, ATP concentrations at time 0 or after 4 hour incubation may be monitored by luciferase reaction (PKLight kit obtained from Cambrex Corporation, One Meadowlands Plaza, East Rutherford, N.J. 07073), which generate a luminescence readout in the presence of ATP. Assays are initiated by mixing a kinase and a peptide in the presence of 40 μM ATP. After 4 hour of incubation at 30° C., PKLight reagent is added and mixed well, and luminescence readout measured. The rate of peptide phosphorylation is then directly related to the rate of decrease in the observed luminescence. Based on the first test, linkers of appropriate lengths and peptides with an effective amount of kinase activity which may be expected to be retained in the drug conjugate may be found.
Human Src (#14-326) and Akt (#14-276) kinases were purchased from Upstate (Charlottesville, Va.). Kinase reactions were carried out in 50 μl kinase reaction cocktail (25 mM Tris-HCl, pH 7.5, 5 μM β-glycerophosphate, 2 mM DTT, 0.1 mM Na3VO4, 10 mM MgCl2, 1 mg/ml BSA, […], 0.5 to 1.0 units enzyme). Substrates (peptide or drug-peptide conjugate in […]) were added (25, 50 and 100 μM) and the reaction was incubated for 2-5 hours at 30° C. PKLight reagent (23 μl) (Cambrex BioSciences, Rockland, Me.) was mixed with […] of the above kinase reaction and ATP utilization relative to no substrate and no ATP controls was determined by measuring luminescence with a SpectraMax Gemini EM plate reader (Molecular Devices, Sunnyvale, Calif.). Peptide substrates for Src and Akt have been described. For examples, see Lou et al. Letters in Peptide Science, 2, 289-296 (1995); Lou et al. Bioorganic & Medicinal Chemistry, 4, 677-682 (1996); Alessi et al. FEBS Letters, 399, 333-338 (1996). Substrate phosphorylation potential was determined from the linear portion of the substrate concentration dose response as a percentage of the activity observed with the parent peptide used for drug conjugation.

MCF-7 breast carcinoma = assay: Cytotoxicity assay (monolayer), MCF-7; assay type: cell-based; details: MCF7, ML (monolayer); read-out: MCF7 (EC50 Ave) ML;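 further: cells treated 72 h with 6-8 compound doses versus DMSO vehicle controls, EC50 fitted by 4-parameter dose-response curves, averaged across all tests and lots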
[2] = test system: Normal human foreskin fibroblasts (HFF); details: read-out: HFF (EC50 Ave) ML; HFF, ML (monolayer)
tubulin = assay: Fluorescence-based tubulin polymerization assay (MPA; enhancement for paclitaxel, inhibition for vinblastine); assay type: biochemical
Outline: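 Tubulin polymerisation was followed by fluorescence (ex 360/em 405 nm) with 1 mg/ml BSA in all assays. For paclitaxel conjugates, glycerol was omitted. Parent drugs and conjugates were tested at 0.75, 1.5, 3 and 10 micromolar final, and values come from the linear range of the dose responses.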

[3] = test system: HT-29 colorectal carcinoma; assay: Cytotoxicity assay (monolayer), HT-29; assay type: cell-based; details: HT29, ML (monolayer); read-out: HT29 (EC50 Ave) ML;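 further: monolayer cultures tested in triplicate, compound exposure for three days against DMSO vehicle controls, EC50 fitted from dose-response curves and averaged across all tests and lots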
Human Src = molecular target: T1, Human Src (Homo sapiens, UniProt P12931); assay: Src kinase assay (PKLight ATP utilization, substrate phosphorylation as % of parent peptide); assay type: biochemical
T1 construct: purchased Upstate (Charlottesville, Va.) 14-326
Outline: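 Recombinant human Src or Akt phosphorylated peptide or drug–peptide conjugate substrates (25, 50, 100 μM) at 30° C for 2–5 hours, in Tris-HCl pH 7.5 buffer with MgCl2 and ATP. ATP use was read by luciferase luminescence against no-substrate and no-ATP controls. Phosphorylation was taken from the linear range and expressed as % of the parent peptide.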

HT-29 cells = details: read-out: HT29 (EC50 Ave) SA; HT29, SA (soft agar)
MCF-7 cells = details: read-out: MCF7 (EC50 Ave) SA; MCF7, SA (soft agar)

Compound	Relative Percent Remaining at 0 hr ([1]; 0 hr) [%]	remaining at 4 h, 10 μM ([1]; bovine, 4 hr, read-out: Relative Percent Remaining at 4 hr) [%]	remaining at 8 h, 10 μM ([1]; bovine, 8 hr, read-out: Relative Percent Remaining at 8 hr) [%]	remaining at 24 h, 10 μM ([1]; bovine, 24 hr, read-out: Relative Percent Remaining at 24 hr) [%]	remaining at 72 h, 10 μM ([1]; bovine, 72 hr, read-out: Relative Percent Remaining at 72 hr) [%]	EC50 (HUVEC) [nM]	Ave. Akt Kinase Act. (Akt)	EC50 (MCF-7 breast carcinoma) [nM]	EC50 [2] [nM]	Ave. MPA Act. (tubulin)	EC50 [3] [nM]	Average src kinase activity (Human Src)	EC50 (HT-29 cells) [nM]	EC50 (MCF-7 cells) [nM]
CC(=O)O[C@H]1C(=O)[C@@]2(C)[C@H]([C@H](OC(=O)c3ccccc3)[C@]3(O)C[C@H](OC(=O)[C@H](O)[C@@H](NC(=O)c4ccccc4)c4ccccc4)C(C)=C1C3(C)C)[C@]1(OC(C)=O)CO[C@@H]1C[C@@H]2O [Paclitaxel, reference compound]	100	73	59	28	< 3									
Pv-RSRTSSF-PEG(11)-3Am-VBL (Piv-RSRTSSF-{PEG(11)-3Am‑VBL}; also: 2 TFA salt)						> 100	C (C>40)	> 100	> 100	C (C>80)	> 100			
Ac-EYIYGSFR-PEG(11)-3Am-VBL (N-acetyl, PEG11, vinblastine conjugate)						> 100		> 100	> 100	C (C>80)	> 100	B (B=20-40)	> 100	> 100
Pv-E(DMAB)YIYGSFR-PEG(11)-3Am-VBL (EYIYGSFR)						20 to 100		20 to 100	> 100	B (B=50-80)	> 100	A (A<20)	20 to 100	20 to 100
Ac-RPRTSSF-PEG(11)-3Am-VBL (N-acetyl; PEG(11) linker; vinblastine conjugate)						> 100	C (C>40)	20 to 100	20 to 100	C (C>80)	20 to 100			
BOC-E(Bzl)YIFGSFK(BOC)-PEG(11)-3Am-VBL						> 100		20 to 100	> 100	A (A<50)	> 100	A (A<20)	20 to 100	< 20
Ac-RSRTSSF-PEG(13)-10Ca-PXL (N-acetyl; PEG(13) linker; paclitaxel conjugate)							C (C>40)			C (C>80)				
Pv-E(Bzl)YIYGSFK(CBz)-PEG(13)-10Ca-PXL (Piv-E(OBn)YIYGSFK(Cbz)-{PEG(13)″-10Ca-PXL}; also: TFA salt)						> 100		> 100	> 100	A (A<50)	> 100	A (A<20)	> 100	20 to 100
Pv-YIFGSFR-PEG(13)-10Ca-PXL (Piv-YIFGSFR-{PEG(13)″-10Ca‑PXL}; also: TFA salt)						> 100		> 100	> 100	A (A<50)	> 100	Zero	> 100	20 to 100
BOC-EYIYGSFK(BOC)-PEG(11)-3Am-VBL (N-BOC; BOC side chain; PEG(11); vinblastine conjugate)						> 100		> 100	> 100	C (C>80)	> 100	B (B=20-40)	> 100	> 100
BOC-YIYGSFR-PEG(11)-3Am-VBL (N-BOC; PEG(11) linker; vinblastine conjugate)						> 100		> 100	> 100	C (C>80)	> 100	B (B=20-40)	> 100	> 100
Ac-YIYGSFR-PEG(11)-3Am-VBL (N-acetyl; PEG(11) linker; vinblastine conjugate)						> 100		20 to 100	> 100	B (B=50-80)	20 to 100	C (C>40)	> 100	20 to 100
Ac-EYIyGSFK-PEG(13)-10Ca-PXL (EYIYGSFK; not fully specified)						> 100		> 100	> 100	C (C>80)	> 100	Zero	> 100	> 100
Pv-RSRKESY-PEG(13)-10Ca-PXL (Piv-RSRKESY-{PEG(13)-10Ca‑PXL}; also: 2 TFA salt)							C (C>40)			C (C>80)				
Pv-YIYGSFR-PEG(11)-3Am-VBL (Piv-YIYGSFR-{PEG(11)-3Am‑VBL})						> 100		> 100	> 100	C (C>80)	> 100	B (B=20-40)	> 100	> 100
Pv-RSRTSSFAEG-PEG(13)-10Ca-PXL (Piv-RSRTSSFAEG-{PEG(13)-10Ca‑PXL}; also: 2 TFA salt)							C (C>40)			C (C>80)				
